{"source": "patent US20220160779A1", "about": "“COMPOSITION FOR PROMOTING CARTILAGE TISSUE REGENERATION” (National University Corporation Tokyo Medical and Dental …, priority 2019, published 2022)", "molecules": {"B1": {"name": "IL10: recombinant IL10 protein (protein, UniProt P22301 19-178, looked up)", "Interleukin-10": "SPGQGTQSENSCTHFPGNLPNMLRDLRDAFSRVKTFFQMKDQLDNLLLKESLLEDFKGYLGCQALSEMIQFYLEEVMPQAENQDPDIKAHVNSLGENLKTLRLRLRRCHRFLPCENKSKAVEQVKNAFNKLQEKGIYKAMSEFDIFINYIEAYMTMKIRN"}, "B2": {"name": "FGF18: FGF18 given by intra-articular administration (protein, UniProt O76093 28-207, looked up)", "Fibroblast growth factor 18": "EENVDFRIHVENQTRARDDVSRKQLRLYQLYSRTSGKHIQVLGRRISARGEDGDKYAQLLVETDTFGSQVRIKGKETEFYLCMNRKGKLVGKPDGTSKECVFIEKVLENNYTALMSAKYSGWYVGFTKKGRPRKGPKTRENQQDVHFMKRYPKGQPELQKPFKYTTVTKRSRRIRPTHPA"}}, "key": {"[1]": {"system": "synovial MSCs", "assay": "Proliferation assay of synovial MSCs with recombinant protein (MTT assay)", "assay_type": "cell-based, human", "details": "for effect of inhibitor on pro-proliferative activity of Activin A / cell count (MTT assay): 0.5% FBS + rh Activin A + inhibitor, FIG. 5E; for proliferation activation of MSCs (MTT assay): recombinant protein added to normal growth medium (10% FBS) up to 100 times the ED50, FIG. 3C", "procedure": "Primary human synovial cells were isolated from the synovial tissues obtained from patients who underwent total knee arthroplasty (TKA), as described in Sekiya I. et al, Clin Orthop Relat Res, 2015, 473(7), pp. 2316 to 2326. That is, first, 0.5 to 1 mg of synovium obtained by incising the suprapatellar bursa was subjected to collagenase D treatment (Sigma, MO, USA, 3 hours at 37° C.) to disperse nucleated cells. Debris was removed by passing the cell dispersion through a 70 μm nylon mesh. Nucleated cells were seeded in a 15 cm dish at 5.7×10^2 cells/cm^2 and maintained and cultured in MEM-alpha medium supplemented with 10% FBS and antibiotics (Gibco, MA, USA) for 14 days. The cells were then separated from the dish in TripLE solution (Gibco) and seeded twice more in a new dish to obtain a sufficient cell count to be used in the experiments. Note that in all experiments, cells within 6 passages were used.\nTo evaluate the pro-proliferative activity of recombinant proteins (IL6, IL8, IL10, and Activin A), MTT assays were performed (see FIGS. 3C and 5C-E). Synovial MSCs were seeded to 1×10^3 cells/well in 96-well plates and cultured in 0.2 mL of normal growth medium 1 day before being subjected to recombinant protein treatment. On the following day, the medium was replaced with a fresh one (normal growth medium or medium with a reduced FBS concentration of 0.5% and recombinant protein added (10 times the concentration of ED50 or 100 times the concentration of ED50)). MTT assays were performed at days 0, 1, 3, 5, and 7 according to the method described in Denizot F. et al., J Immunol Methods, 1986, 89(2), pp. 271 to 277.\nIn addition, the present inventors tried to clarify the molecular mechanism of MSC proliferative activity by Activin A. It has been reported that the ERK and PI3K signal transduction pathways are activated for MSC proliferation (see Uomizu, M. et al, J Med Dent Sci., 2018, vol. 65, pp. 73 to 82). With the above in mind, Activin A (rh Activin A) was applied to synovial MSCs in the presence of PI3K-PKB/Akt and Erk1/Erk2, a specific inhibitor for each of these signal transduction pathways, and the cell count was measured by MTT assay."}, "[2]": {"system": "synovial MSCs", "assay": "In-vitro differentiation assay of MSCs (cartilage, bone, adipocytes)", "assay_type": "cell-based, human", "details": "added to chondrogenic differentiation medium, pellet culture 2 weeks; FIG. 6C", "procedure": "In-vitro differentiation assays were performed according to the method described in Colter D C. et al, Proc Natl Acad Sci USA, 2001, 98, pp. 7841 to 7845.\nTo form chondrogenic spheroids, 2.5×10^5 cells were transferred into 15 mL polypropylene tubes (BD Biosciences) and subjected to centrifugation at 450×g for 10 minutes. Then, the cell pellets were cultured in chondrogenic medium containing 1000 ng/mL rhBMP-2 (Infuse Bone Graft; Medtronic, TN, USA), 10 ng/mL […], and 100 nM dexamethasone (Sigma-Aldrich, MO, USA) for 14 days.\nFor calcification, cells were cultured in normal growth medium supplemented with 1 nM dexamethasone, 20 mM β-glycerophosphate, and 50 μg/mL ascorbic acid-2-phosphate (Sigma-Aldrich) for 21 days. Calcified nodule formation was visualized by alizarin red staining (Sigma-Aldrich).\nFor adipogenesis, the cells were cultured for 21 days in MEM-alpha supplemented with 10% FBS, 100 nM dexamethasone (Sigma-Aldrich), 0.5 mM IBMX (isobutyl-1-methylxanthine; Sigma-Aldrich), and 50 μM indomethacin (Wako, Tokyo, Japan). The adipogenic cultures were immobilized and stained with Oil Red O solution (Sigma-Aldrich)."}, "[3]": {"system": "C57BL/6J mice", "assay": "Medial meniscus anterior 1/2 resection model", "assay_type": "in vivo, mouse", "details": "intra-articular on day 7; 10 days after resection; FIG. 7A", "excerpt": "Twenty male C57BL/6J mice (8 weeks old, weight: about 25 g) were used for this study (5 mice in each group. ORIENTAL YEAST Co., Ltd. Tokyo, Japan). After anesthesia by isoflurane inhalation, a straight incision was made in the left anterior knee, and the anterior central side of the joint capsule was cut. The patellar tendon was then dislocated laterally to expose the anterior corner of the medial meniscus (see Hiyama K. et al, J Orthop Res., 2017, 35(9), pp. 1958 to 1965). The anterior corner of the meniscus was cut and dislocated anteriorly using forceps. The medial meniscus was cut perpendicularly at the medial collateral ligament, and the anterior portion of the medial meniscus was resected in a microscopic operation using a surgical microscope. The skin was closed in layers with non-absorbable sutures. Note that the right knee was subjected to sham surgery. In addition, the mice were kept under a 12-hour light/dark cycle with free movement, free feeding, and drinking water.\nRecombinant human Activin A (42 ng/6 μL in PBS) and/or rh PDGF-AA (174 ng/6 μL in PBS) was injected intra-articularly on postoperative day 7 (see Hoshino T. et al., BMC Musculoskelet Disord., 2018, 19(1): 291). […]\nTissue samples were fixed in 4% paraformaldehyde for 3 to 4 days and subjected to decalcification in 20% ethylenediaminetetraacetic acid (EDTA) solution for 21 days. Then, they were embedded in paraffin wax. The specimens were then cut to a 5 μm thickness in the sagittal plane and stained with safranin O/Fast Green or hematoxylin/eosin (H&E) to histologically evaluate meniscus regeneration.\nA modified Pauli's score system was used to histologically quantify meniscus regeneration (see Hiyama K. et al, J Orthop Res. 2017, 35(9), pp. 1958 to 1965). Histological evaluation was performed by two investigators in a blind manner.\nType I and II collagen immunostaining was performed as described in Tsuji K. et al, Cell Transplant., 2017, 26(6), pp. 1089 to 1102. That is, sections were subjected to deparaffinization with xylene (Wako Pure Chemical Industries, Tokyo, Japan), rehydrated stepwise with alcohol, and saturated with phosphate buffered saline (PBS). For type II collagen staining, the samples were pretreated with 50 mM Tris-HCl buffer (Wako Pure Chemical Industries) containing 0.4 mg/ml Proteinase K (Dako, Agilent Technologies, Santa Clara, Calif., USA) for 10 min. For type I collagen staining, no digestion with Proteinase K was performed.\nNext, the cells were treated with methanol containing 0.3% hydrogen peroxide for 30 minutes to suppress the activity of endogenous peroxidase. As primary antibodies, anti-type I collagen antibody (1:200 dilution; Abcam cat. #ab34712, Cambridge, UK) or anti-type II collagen antibody (1:1000 dilution; Abcam […], Cambridge, UK) were added to the sections and incubated at 4° C. overnight. Then, the sections were rinsed with 0.1% PBS-Triton X-100 (MP Biomedicals Inc., Solon, Ohio, USA) and incubated with secondary antibodies diluted 1:200 [Biotinylated goat-derived anti-rabbit immunoglobulin G (IgG), Vector Laboratories, Burlingame, Calif., USA]. Then, the sections were rinsed, the signals were visualized with Vectastain ABC Reagent (Vector Laboratories), and diaminobenzidine staining (DAB, Vector Laboratories) was applied. In addition, the sections were contrast stained with hematoxylin (Muto Pure Chemicals, Tokyo, Japan)."}, "[4]": {"system": "rat model of total articular cartilage loss", "assay": "Full thickness articular cartilage defect model", "assay_type": "in vivo", "details": "4 weeks after the defect, FIG. 8", "procedure": "Next, in order to verify the regeneration of damaged articular cartilage and the suppression of degenerative degeneration, a model of full thickness articular cartilage defect was prepared to examine the effects of rh Activin A administration. Specifically, a 1.4 mmφ total articular cartilage loss was prepared in the femoral intercondylar region using an airtome, and 180 ng of Activin A (rh Activin A) was injected intra-articularly 1 week later."}, "[5]": {"system": "rat meniscus damage model", "details": "intra-articular administration; cited from earlier work"}}, "data": [{"molecule": "O=c1[nH]c2ccccc2n1C1CCN(Cc2ccc(-c3nc4cc5[nH]cnc5cc4nc3-c3ccccc3)cc2)CC1", "note": "[Akt1/2, reference compound]", "values": [{"measurement": "effect of inhibitor on pro-proliferative activity of Activin A / cell count (MTT assay)", "setting": "[1]", "value": "completely eliminated"}]}, {"molecule": "COc1ccc(-c2ccc3c(N4CCOCC4)nc(N4C[C@@H](C)O[C@@H](C)C4)nc3n2)cc1CO", "note": "[KU0063794, reference compound]", "values": [{"measurement": "effect of inhibitor on pro-proliferative activity of Activin A / cell count (MTT assay)", "setting": "[1]", "value": "completely eliminated"}]}, {"molecule": "IL8: recombinant human IL8 protein", "values": [{"measurement": "proliferation activation of MSCs (MTT assay)", "setting": "[1]", "value": "no proliferation activation of MSCs was observed"}]}, {"molecule": "IL6: recombinant human IL6 protein", "values": [{"measurement": "proliferation activation of MSCs (MTT assay)", "setting": "[1]", "value": "no proliferation activation of MSCs was observed"}]}, {"molecule": "PDGF", "values": [{"measurement": "formation of chondrocyte aggregates (wet weight)", "setting": "[2]", "value": "effect of promoting the formation of chondrocyte aggregates"}, {"measurement": "vascular invasion in the regenerated region", "setting": "[3]", "value": "observed"}, {"measurement": "chondrogenic differentiation of the formed tissue", "setting": "[4]", "value": "no significant promotion effect"}, {"measurement": "formation of fibrocartilage-like tissue in the articular cartilage defect site", "setting": "[4]; intra-articular 1 week after defect (rh Activin A 180 ng/knee, rrPDGF-AA 900 ng/knee), vs PBS", "value": "promote the formation of fibrocartilage-like tissue"}]}, {"molecule": "COc1cccc(-c2cc(=O)c3ccccc3o2)c1N", "note": "[PD98059, reference compound]", "values": [{"measurement": "effect of inhibitor on pro-proliferative activity of Activin A / cell count (MTT assay)", "setting": "[1]", "value": "further reduced"}]}, {"molecule": "B1", "values": [{"measurement": "proliferation activation of MSCs (MTT assay)", "setting": "[1]", "value": "no proliferation activation of MSCs was observed"}]}, {"molecule": "B2", "values": [{"measurement": "articular cartilage degeneration and cartilage thickness at the tibial plateau", "setting": "[5]", "value": "suppress articular cartilage degeneration and increase cartilage thickness at the tibial plateau"}]}]}
